Data taken from the supplement of paper PMC10307832.

Columns and labels:
Assay in all cases: relative viability (nuclei count vs DMSO), 5 days (fraction); higher = more cells survive
[1] = compound: C1/C(=C\C2=CC=CS2)/C(=O)/C(=C/C3=CC=CS3)/C1 + C[C@@H](Oc1cc(-c2cnn(C3CCNCC3)c2)cnc1N)c1c(Cl)ccc(F)c1Cl [Crizotinib] (partner 1 µM)
Procedure, shortened: (§1)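 Medians of duplicate plates are given as relative viability. That measure is the nuclei count in treated wells divided by the count in vehicle wells. Counts were taken on 4× images of lung cancer cell lines in 1536-well plates, 5 days after pin-tool dosing the day after seeding with one drug alone or a fixed anchor-drug dose plus five library-drug doses (not always all listed) in √10 steps.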

[2] = compound: C1/C(=C\C2=CC=CS2)/C(=O)/C(=C/C3=CC=CS3)/C1 + C[C@]1(O)C[C@@H](c2nc(-c3ccc4ccc(-c5ccccc5)nc4c3)c3c(N)nccn32)C1 [Linsitinib] (partner 1 µM)
Procedure, shortened: as §1

[3] = compound: C1/C(=C\C2=CC=CS2)/C(=O)/C(=C/C3=CC=CS3)/C1 + Nc1ncn([C@H]2C[C@H](O)[C@@H](CO)O2)c(=O)n1 [Decitabine] (partner 2 µM)
Procedure, shortened: as §1

[4] = compound: C[C@]12O[C@H](C[C@]1(O)CO)n1c3ccccc3c3c4c(c5c6ccccc6n2c5c31)CNC4=O [Lestaurtinib] + CC(C)C[C@H](NC(=O)[C@H](Cc1ccccc1)NC(=O)c1cnccn1)B(O)O [Bortezomib] (partner 0.002 µM)
Procedure, shortened: as §1

Cell Line | relative viability ([1]; first compound 0.2 µM) | relative viability ([1]; first compound 0.6325 µM) | relative viability ([1]; first compound 2 µM) | relative viability ([1]; first compound 6.325 µM) | relative viability ([1]; first compound 20 µM) | relative viability ([2]; first compound 0.2 µM) | relative viability ([2]; first compound 0.6325 µM) | relative viability ([2]; first compound 2 µM) | relative viability ([2]; first compound 6.325 µM) | relative viability ([2]; first compound 20 µM) | relative viability ([3]; first compound 0.2 µM) | relative viability ([3]; first compound 0.6325 µM) | relative viability ([3]; first compound 2 µM) | relative viability ([3]; first compound 6.325 µM) | relative viability ([3]; first compound 20 µM) | relative viability ([4]; first compound 0.005 µM) | relative viability ([4]; first compound 0.01581 µM) | relative viability ([4]; first compound 0.05 µM) | relative viability ([4]; first compound 0.1581 µM) | relative viability ([4]; first compound 0.5 µM)
201T | 1.05 | 1.04 | 1.07 | 0.996 | 1.01 | 1.08 | 0.989 | 1.16 | 0.9 | 0.996 | 0.862 | 0.87 | 0.826 | 0.843 | 0.811 | 1.17 | 1.12 | 1.17 | 1.24 | 0.937
A549 | 0.825 | 0.813 | 0.823 | 0.767 | 0.738 | 0.636 | 0.556 | 0.628 | 0.516 | 0.567 | 0.281 | 0.295 | 0.237 | 0.384 | 0.229 |  |  |  |  | 
A-427 | 1.06 | 0.888 | 0.946 | 0.813 | 0.955 | 1.14 | 1.12 | 1.11 | 1.06 | 1.15 | 0.592 | 0.586 | 0.586 | 0.519 | 0.583 | 0.98 | 1.05 | 0.835 | 0.446 | 0.212
ABC-1 | 1.05 | 1.21 | 1.25 | 1.01 | 0.92 | 0.931 | 0.879 | 0.882 | 0.671 | 0.802 | 1.22 | 1 | 1.2 | 0.87 | 0.972 | 0.352 | 0.332 | 0.292 | 0.308 | 0.2
BEN | 0.941 | 0.947 | 1.02 | 0.861 | 0.706 | 0.96 | 0.923 | 0.877 | 0.841 | 0.757 | 0.666 | 0.724 | 0.893 | 0.643 | 0.644 | 0.74 | 0.998 | 0.637 | 0.74 | 0.328
CAL-12T | 0.839 | 0.912 | 0.673 | 0.362 | 0.596 | 0.837 | 0.964 | 0.764 | 0.744 | 0.92 |  |  |  |  |  | 0.806 | 1.27 | 0.888 | 0.794 | 0.618
COR-L23 | 0.536 | 0.69 | 0.639 | 0.592 | 0.633 | 0.981 | 0.921 | 0.875 | 0.838 | 0.887 | 0.427 | 0.411 | 0.488 | 0.472 | 0.417 | 1.21 | 1.07 |  | 0.697 | 0.464
COR-L 105 | 0.861 | 1.03 | 0.885 | 0.695 | 0.646 | 0.976 | 0.905 | 0.939 | 0.766 | 0.878 | 0.526 | 0.668 | 0.699 | 0.444 | 0.7 | 0.893 | 0.665 | 0.706 | 0.521 | 0.253
Calu-6 | 0.845 | 0.873 | 0.846 | 0.764 | 0.772 | 1.05 | 1.05 | 0.94 | 0.921 | 0.835 |  |  |  |  |  | 1.07 | 0.875 | 0.744 | 0.562 | 0.184
ChaGo-K-1 | 1.16 | 1.23 | 1.08 | 1.05 | 0.76 |  |  |  |  |  | 0.528 | 0.394 | 0.494 | 0.436 | 0.242 | 0.944 | 1.51 | 0.931 | 0.718 | 0.5
EBC-1 | 0.204 | 0.213 | 0.191 | 0.189 | 0.22 | 0.904 | 0.973 | 0.887 | 0.801 | 0.942 |  |  |  |  |  | 0.495 | 0.621 | 0.504 | 0.43 | 0.227
EKVX | 1.01 | 0.982 | 0.922 | 0.929 | 0.926 | 1.1 | 1.05 | 0.974 | 0.776 | 1 | 0.359 | 0.267 | 0.406 |  | 0.452 | 1.1 | 1.26 | 0.999 | 1.19 | 0.679
EMC-BAC-2 | 0.789 | 0.792 | 0.751 | 0.59 | 0.695 | 0.811 | 0.787 | 0.84 | 0.761 | 0.792 | 1 | 0.968 | 1.03 | 0.909 | 0.924 | 1.1 | 1.11 | 0.942 | 0.678 | 0.279
EPLC-272H | 1 | 0.885 | 1.01 | 0.797 | 0.735 | 1.29 | 1.07 | 1.22 | 1.19 | 1.03 | 0.379 | 0.349 | 0.446 | 0.282 | 0.339 | 1.02 | 1.15 | 0.603 | 0.828 | 0.486
H3255 | 0.847 | 1.06 | 0.793 | 0.8 | 0.845 | 0.949 | 0.92 | 0.909 | 0.728 | 0.913 | 0.81 | 0.538 | 0.527 | 0.55 | 0.494 | 0.773 | 0.982 | 0.648 | 0.903 | 0.351
HARA | 0.985 | 1.05 | 1.03 | 0.758 | 1.03 | 0.968 | 1.06 | 0.898 | 0.242 | 0.902 | 0.755 | 0.571 | 0.558 | 0.529 | 0.595 | 1.21 | 1.33 | 1 | 0.671 | 0.179
HCC-15 | 0.833 | 0.881 | 0.771 | 0.779 | 0.79 | 0.899 | 0.921 | 0.846 | 0.734 | 0.888 | 0.677 | 0.688 | 0.661 | 0.619 | 0.609 | 1.04 | 1.28 | 0.868 | 0.868 | 0.194
